According to ChEMBL document CHEMBL3885881, “DrugMatrix”:

Species: Rattus norvegicus
Experiment: DrugMatrix - Regimen: Daily Repeat
Assay type: toxicity, organism-based, Sprague-Dawley
Design: regimen Daily Repeat, gender Male, age 6-8 weeks
Conditions: in vivo, po, route oral GAVAGE, […]; for ABSOLUTE BASOPHIL / ABSOLUTE EOSINOPHIL / ABSOLUTE LYMPHOCYTE / ABSOLUTE MONOCYTE / ABSOLUTE SEGMENTED NEUTROPHIL / BASOPHIL / EOSINOPHIL / ERYTHROCYTE COUNT / HEMATOCRIT / HEMOGLOBIN / LEUKOCYTE COUNT / LYMPHOCYTE / MEAN CORPUSCULAR HEMOGLOBIN / MEAN CORPUSCULAR HEMOGLOBIN CONCENTRATION / MEAN CORPUSCULAR VOLUME / MONOCYTE / NEUTROPHIL / NUCLEATED RED BLOOD CELLS / PLATELET COUNT: tissue Blood; for ALANINE AMINOTRANSFERASE / ALBUMIN / ALKALINE PHOSPHATASE / ASPARTATE AMINOTRANSFERASE / BLOOD UREA NITROGEN / CARBON DIOXIDE / CHLORIDE / CHOLESTEROL / CREATINE PHOSPHOKINASE / CREATININE / GLUCOSE / LACTATE DEHYDROGENASE / LIPASE / PHOSPHORUS / POTASSIUM / SODIUM / TOTAL BILIRUBIN / TOTAL PROTEIN / URIC ACID: tissue Plasma
[1] = 0 mg/kg, 72 h, dose level Control, time 3 day
[2] = 0 mg/kg, 120 h, dose level Control, time 5 day
[3] = 300 mg/kg, 72 h, dose level High, time 3 day

CC(C)c1c(C(=O)Nc2ccccc2)c(-c2ccccc2)c(-c2ccc(F)cc2)n1CC[C@@H](O)C[C@@H](O)CC(=O)O [ATORVASTATIN]
ABSOLUTE BASOPHIL [1]: 0 CELLS/uL
ABSOLUTE EOSINOPHIL [1]: 14 CELLS/uL
ABSOLUTE LYMPHOCYTE [1]: 11144.67 CELLS/uL
ABSOLUTE MONOCYTE [1]: 22.5 CELLS/uL
ABSOLUTE SEGMENTED NEUTROPHIL [1]: 535.5 CELLS/uL
BASOPHIL [1]: 0%
EOSINOPHIL [1]: 0.17%
ERYTHROCYTE COUNT [1]: 5.08 x10E6/uL
HEMATOCRIT [1]: 32.32%
HEMOGLOBIN [1]: 12.87 G/DL
LEUKOCYTE COUNT [1]: 11.72 x10E3/uL
LYMPHOCYTE [1]: 94.67%
MEAN CORPUSCULAR HEMOGLOBIN [1]: 25.37 pg
MEAN CORPUSCULAR HEMOGLOBIN CONCENTRATION [1]: 39.85 G/DL
MEAN CORPUSCULAR VOLUME [1]: 63.58 fL
MONOCYTE [1]: 0.17%
NEUTROPHIL [1]: 5%
NUCLEATED RED BLOOD CELLS [1]: 0 /100WBC
PLATELET COUNT [1]: 1084 x10E3/uL
ALANINE AMINOTRANSFERASE [1]: 67.5 u/L
ALBUMIN [1]: 4.02 G/DL
ALKALINE PHOSPHATASE [1]: 374.17 u/L
ASPARTATE AMINOTRANSFERASE [1]: 83.5 u/L
BLOOD UREA NITROGEN [1]: 14.5 mg/dL
CARBON DIOXIDE [1]: 30 mmol/L
CHLORIDE [1]: 100.5 MEQ/L
CHOLESTEROL [1]: 71.33 mg/dL
CREATINE PHOSPHOKINASE [1]: 268.33 u/L
CREATININE [1]: 0.16 mg/dL
GLUCOSE [1]: 170.5 mg/dL
LACTATE DEHYDROGENASE [1]: 81.17 u/L
LIPASE [1]: 16.67 u/L
PHOSPHORUS [1]: 10.07 mg/dL
POTASSIUM [1]: 5.03 MEQ/L
SODIUM [1]: 142.92 MEQ/L
TOTAL BILIRUBIN [1]: 0.17 mg/dL
TOTAL PROTEIN [1]: 5.63 G/DL
URIC ACID [1]: 0.5 mg/dL
ABSOLUTE BASOPHIL [2]: 0 CELLS/uL
ABSOLUTE EOSINOPHIL [2]: 37.5 CELLS/uL
ABSOLUTE LYMPHOCYTE [2]: 8049.5 CELLS/uL
ABSOLUTE MONOCYTE [2]: 82.83 CELLS/uL
ABSOLUTE SEGMENTED NEUTROPHIL [2]: 646.83 CELLS/uL
BASOPHIL [2]: 0%
EOSINOPHIL [2]: 0.5%
ERYTHROCYTE COUNT [2]: 5.36 x10E6/uL
HEMATOCRIT [2]: 33.9%
HEMOGLOBIN [2]: 13.02 G/DL
LEUKOCYTE COUNT [2]: 8.82 x10E3/uL
LYMPHOCYTE [2]: 90.17%
MEAN CORPUSCULAR HEMOGLOBIN [2]: 24.32 pg
MEAN CORPUSCULAR HEMOGLOBIN CONCENTRATION [2]: 38.42 G/DL
MEAN CORPUSCULAR VOLUME [2]: 63.32 fL
MONOCYTE [2]: 1.17%
NEUTROPHIL [2]: 8.17%
NUCLEATED RED BLOOD CELLS [2]: 0.17 /100WBC
PLATELET COUNT [2]: 1231.5 x10E3/uL
ALANINE AMINOTRANSFERASE [2]: 62 u/L
ALBUMIN [2]: 3.97 G/DL
ALKALINE PHOSPHATASE [2]: 303.67 u/L
ASPARTATE AMINOTRANSFERASE [2]: 84.5 u/L
BLOOD UREA NITROGEN [2]: 14.83 mg/dL
CARBON DIOXIDE [2]: 31.83 mmol/L
CHLORIDE [2]: 97 MEQ/L
CHOLESTEROL [2]: 68.83 mg/dL
CREATINE PHOSPHOKINASE [2]: 411.33 u/L
CREATININE [2]: 0.16 mg/dL
GLUCOSE [2]: 170.17 mg/dL
LACTATE DEHYDROGENASE [2]: 88.5 u/L
LIPASE [2]: 9.5 u/L
PHOSPHORUS [2]: 9.98 mg/dL
POTASSIUM [2]: 5.72 MEQ/L
SODIUM [2]: 141.62 MEQ/L
TOTAL BILIRUBIN [2]: 0.1 mg/dL
TOTAL PROTEIN [2]: 5.67 G/DL
URIC ACID [2]: 0.52 mg/dL
ABSOLUTE BASOPHIL [3]: 0 CELLS/uL
ABSOLUTE EOSINOPHIL [3]: 88 CELLS/uL
ABSOLUTE LYMPHOCYTE [3]: 7063.33 CELLS/uL
ABSOLUTE MONOCYTE [3]: 150.67 CELLS/uL
ABSOLUTE SEGMENTED NEUTROPHIL [3]: 964.67 CELLS/uL
BASOPHIL [3]: 0%
EOSINOPHIL [3]: 1%
ERYTHROCYTE COUNT [3]: 5.19 x10E6/uL
HEMATOCRIT [3]: 32.23%
HEMOGLOBIN [3]: 12.9 G/DL
LEUKOCYTE COUNT [3]: 8.27 x10E3/uL
LYMPHOCYTE [3]: 86%
MEAN CORPUSCULAR HEMOGLOBIN [3]: 24.93 pg
MEAN CORPUSCULAR HEMOGLOBIN CONCENTRATION [3]: 40.13 G/DL
MEAN CORPUSCULAR VOLUME [3]: 62.1 fL
MONOCYTE [3]: 1.67%
NEUTROPHIL [3]: 11.33%
NUCLEATED RED BLOOD CELLS [3]: 0 /100WBC
PLATELET COUNT [3]: 924.33 x10E3/uL
ALANINE AMINOTRANSFERASE [3]: 226.67 u/L
ALBUMIN [3]: 4.2 G/DL
ALKALINE PHOSPHATASE [3]: 729 u/L
ASPARTATE AMINOTRANSFERASE [3]: 518.67 u/L
BLOOD UREA NITROGEN [3]: 15 mg/dL
CARBON DIOXIDE [3]: 26.33 mmol/L
CHLORIDE [3]: 103 MEQ/L
CHOLESTEROL [3]: 70.67 mg/dL
CREATINE PHOSPHOKINASE [3]: 416.67 u/L
CREATININE [3]: 0.17 mg/dL
GLUCOSE [3]: 160 mg/dL
LACTATE DEHYDROGENASE [3]: 414.67 u/L
LIPASE [3]: 12 u/L
PHOSPHORUS [3]: 10 mg/dL
POTASSIUM [3]: 4.92 MEQ/L
SODIUM [3]: 144.23 MEQ/L
TOTAL BILIRUBIN [3]: 0.37 mg/dL
TOTAL PROTEIN [3]: 5.67 G/DL
URIC ACID [3]: 0.67 mg/dL
